# Assay results taken from patent US10300042B2, “Apremilast for the treatment of a liver disease or a liver function abnormality” (Celgene Corporation, priority 2014, dated 2019).
# Legend:
# TNF-α = experiment: Inhibition of TNF-α production in a mouse model; type: in vivo
# Text: The test methods were as described in WO 03/080049; Muller et al., J. Med. Chem., 1996, 39:3238; and Muller et al., Bioorg. Med. Chem. Lett., 1999, 9:1625-30.
# PDE4 = PDE4 enzyme inhibition (enzyme purified from U937 human monocytic cells); type: biochemical; conditions: 1 μM cAMP, 45 min at 30° C.
# Protocol: Phosphodiesterase 4 enzyme was purified from U937 human monocytic cells by gel filtration chromatography, and phosphodiesterase reactions were carried out as previously described. See Muller et al., Bioorg. Med. Chem. Lett., 1998, 8(19): 2669-2674. Briefly, reactions were carried out in 96-well deep-well plates in 50 mM Tris HCl pH 7.5, 5 mM MgCl2, 1 μM cyclic adenosine monophosphate (cAMP), plus 10 nM [3H]-cAMP for 45 min at 30° C. The reactions were terminated by boiling, treated with 1 mg/ml snake venom, and separated using AG-1X8 ion exchange resin (BioRad). Reactions consumed less than 15% of available substrate.
# [1] = test system: Aspartate Aminotransferase; experiment: AST levels in RA-002 (rheumatoid arthritis); type: in vivo, human; conditions: for AST High to Normal, percent of patients / AST Net Benefit / AST Normal to High, percent of patients: end of treatment (week 16); for AST High, % of patients / AST Low, % of patients / AST Normal, % of patients: Week 16
# Protocol: The improvement in mild baseline liver function test abnormalities has been observed with apremilast daily use without any prescribed changes in physical activity, social or dietary habits. During the course of the study, there was observed a higher proportion of subjects in the 30 mg BID apremilast treatment group with normal LFTs at subsequent placebo-controlled study visits at week 16. See Tables 17 to 24 from RA-002 studies.
# Alanine Aminotransferase = experiment: ALT levels in PSA-005 (psoriatic arthritis); type: in vivo, human; conditions: for ALT High to Normal, percent of patients / ALT Net Benefit / ALT Normal to High, percent of patients: end of treatment (week 24)
# Text: (§1) Apremilast was studied in a Phase 3 trial in patients with active psoriatic arthritis who have not been previously treated with disease-modifying antirheumatic drugs. […] The improvement in mild baseline liver function test abnormalities has been observed with apremilast daily use without any prescribed changes in physical activity, social or dietary habits. […] See Tables 25 to 34 from PSA-005 studies.
# [2] = test system: Aspartate Aminotransferase; experiment: AST levels in PSA-005 (psoriatic arthritis); type: in vivo, human; conditions: for AST High to Normal, percent of patients / AST Net Benefit / AST Normal to High, percent of patients: end of treatment (week 24)
# Text: as §1
# [3] = test system: patients with moderate to severe plaque psoriasis; experiment: Pruritus in ESTEEM 1; type: in vivo, human; conditions: Week 16, 30 mg BID
# Protocol: Patients were randomized with Apremilast in an amount of 30 mg twice per day or placebo for the first 16 weeks, and from Weeks 16 to 32, all patients received Apremilast in an amount of 30 mg twice per day.
# [4] = Baseline High, Week 24, 20 mg BID
# [5] = Baseline High, Week 24, 30 mg BID
# [6] = Baseline Normal, Week 24, 20 mg BID
# [7] = Baseline Normal, Week 24, 30 mg BID
# [8] = Baseline Total, Week 24, 20 mg BID
# [9] = Baseline Total, Week 24, 30 mg BID
smiles,measurement,setting,value
"CCOc1cc([C@@H](CS(C)(=O)=O)N2C(=O)c3cccc(NC(C)=O)c3C2=O)ccc1OC [Apremilast, (+)-2-[1-(3-ethoxy-4-methoxyphenyl)-2-methylsulfonylethyl]-4-acetylaminoisoindoline-1,3-dione]","EC50, TNF-α production",TNF-α,0.05 mg/kg
same,IC50,PDE4,73.5 nM
same,"AST High to Normal, percent of patients",[1]; 20 BID,50.0%
same,AST Net Benefit,[1]; 20 BID,33.3%
same,"AST Normal to High, percent of patients",[1]; 20 BID,3.0%
same,"AST High to Normal, percent of patients",[1]; 30 BID,100.0%
same,AST Net Benefit,[1]; 30 BID,50.0%
same,"AST Normal to High, percent of patients",[1]; 30 BID,4.7%
same,"AST High to Normal, Difference between Placebo and APR 30 BID","[1]; 30 BID, week 16",50%
same,"AST Net Benefit, Difference between Placebo and APR 30 BID","[1]; 30 BID, week 16",16.7%
same,"AST Normal to High, Difference between Placebo and APR 30 BID","[1]; 30 BID, week 16",1.7%
same,"AST High to Normal, Difference between Placebo and APR 30 BID","[1]; 30 BID, week 16, listed as APR",50.0%
same,"AST High, % of patients","[1]; Baseline High, 20 mg BID",50.0%
same,"AST Low, % of patients","[1]; Baseline High, 20 mg BID",0.0%
same,"AST Normal, % of patients","[1]; Baseline High, 20 mg BID",50.0%
same,"AST High, % of patients","[1]; Baseline High, 30 mg BID",0.0%
same,"AST Low, % of patients","[1]; Baseline High, 30 mg BID",0.0%
same,"AST Normal, % of patients","[1]; Baseline High, 30 mg BID",100.0%
same,"AST High, % of patients","[1]; Baseline Normal, 20 mg BID",3.0%
same,"AST Low, % of patients","[1]; Baseline Normal, 20 mg BID",0.0%
same,"AST Normal, % of patients","[1]; Baseline Normal, 20 mg BID",97.0%
same,"AST High, % of patients","[1]; Baseline Normal, 30 mg BID",4.7%
same,"AST Low, % of patients","[1]; Baseline Normal, 30 mg BID",0.0%
same,"AST Normal, % of patients","[1]; Baseline Normal, 30 mg BID",95.3%
same,"AST High, % of patients","[1]; Baseline Total, 20 mg BID",5.7%
same,"AST Low, % of patients","[1]; Baseline Total, 20 mg BID",0.0%
same,"AST Normal, % of patients","[1]; Baseline Total, 20 mg BID",94.3%
same,"AST High, % of patients","[1]; Baseline Total, 30 mg BID",4.5%
same,"AST Low, % of patients","[1]; Baseline Total, 30 mg BID",0.0%
same,"AST Normal, % of patients","[1]; Baseline Total, 30 mg BID",95.5%
same,"ALT High to Normal, percent of patients",Alanine Aminotransferase; 20 BID,87.5%
same,ALT Net Benefit,Alanine Aminotransferase; 20 BID,53.8%
same,"ALT Normal to High, percent of patients",Alanine Aminotransferase; 20 BID,3.3%
same,"ALT High to Normal, percent of patients",Alanine Aminotransferase; 30 BID,72.7%
same,ALT Net Benefit,Alanine Aminotransferase; 30 BID,44.4%
same,"ALT Normal to High, percent of patients",Alanine Aminotransferase; 30 BID,4.9%
same,"ALT High to Normal, Difference between Placebo and APR 30 BID","Alanine Aminotransferase; 30 BID, week 24",22.7%
same,"ALT Net Benefit, Difference between Placebo and APR 30 BID","Alanine Aminotransferase; 30 BID, week 24",24.4%
same,"ALT Normal to High, Difference between Placebo and APR 30 BID","Alanine Aminotransferase; 30 BID, week 24",−1.0%
same,"ALT High to Normal, Difference between Placebo and APR 30 BID","Alanine Aminotransferase; 30 BID, week 24, listed as APR",22.7%
same,"ALT High, % of patients",Alanine Aminotransferase; [4],12.5%
same,"ALT Low, % of patients",Alanine Aminotransferase; [4],0.0%
same,"ALT Normal, % of patients",Alanine Aminotransferase; [4],87.5%
same,"ALT High, % of patients",Alanine Aminotransferase; [5],27.3%
same,"ALT Low, % of patients",Alanine Aminotransferase; [5],0.0%
same,"ALT Normal, % of patients",Alanine Aminotransferase; [5],72.7%
same,"ALT High, % of patients",Alanine Aminotransferase; [6],3.3%
same,"ALT Low, % of patients",Alanine Aminotransferase; [6],0.0%
same,"ALT Normal, % of patients",Alanine Aminotransferase; [6],96.7%
same,"ALT High, % of patients",Alanine Aminotransferase; [7],4.9%
same,"ALT Low, % of patients",Alanine Aminotransferase; [7],0.0%
same,"ALT Normal, % of patients",Alanine Aminotransferase; [7],95.1%
same,"ALT High, % of patients",Alanine Aminotransferase; [8],3.8%
same,"ALT Low, % of patients",Alanine Aminotransferase; [8],0.0%
same,"ALT Normal, % of patients",Alanine Aminotransferase; [8],96.2%
same,"ALT High, % of patients",Alanine Aminotransferase; [9],6.5%
same,"ALT Low, % of patients",Alanine Aminotransferase; [9],0.0%
same,"ALT Normal, % of patients",Alanine Aminotransferase; [9],93.5%
same,Baseline High ALT: High %,"Alanine Aminotransferase; Week 4, 20 mg BID",30.0%
same,Baseline High ALT: Normal %,"Alanine Aminotransferase; Week 4, 20 mg BID",70.0%
same,Baseline High ALT: High %,"Alanine Aminotransferase; Week 4, 30 mg BID",72.7%
same,Baseline High ALT: Normal %,"Alanine Aminotransferase; Week 4, 30 mg BID",27.3%
same,Baseline High ALT: High %,"Alanine Aminotransferase; Week 16, 20 mg BID",12.5%
same,Baseline High ALT: Normal %,"Alanine Aminotransferase; Week 16, 20 mg BID",87.5%
same,Baseline High ALT: High %,"Alanine Aminotransferase; Week 16, 30 mg BID",36.4%
same,Baseline High ALT: Normal %,"Alanine Aminotransferase; Week 16, 30 mg BID",63.6%
same,Baseline High ALT: High %,"Alanine Aminotransferase; Week 24, 20 mg BID",12.5%
same,Baseline High ALT: Normal %,"Alanine Aminotransferase; Week 24, 20 mg BID",87.5%
same,Baseline High ALT: High %,"Alanine Aminotransferase; Week 24, 30 mg BID",27.3%
same,Baseline High ALT: Normal %,"Alanine Aminotransferase; Week 24, 30 mg BID",72.7%
same,"AST High to Normal, percent of patients",[2]; 20 BID,60.0%
same,AST Net Benefit,[2]; 20 BID,37.5%
same,"AST Normal to High, percent of patients",[2]; 20 BID,2.0%
same,"AST High to Normal, percent of patients",[2]; 30 BID,75.0%
same,AST Net Benefit,[2]; 30 BID,60.0%
same,"AST Normal to High, percent of patients",[2]; 30 BID,2.1%
same,"AST High to Normal, Difference between Placebo and APR 30 BID","[2]; 30 BID, week 24",25%
same,"AST Net Benefit, Difference between Placebo and APR 30 BID","[2]; 30 BID, week 24",35.0%
same,"AST Normal to High, Difference between Placebo and APR 30 BID","[2]; 30 BID, week 24",−1.8%
same,"AST High to Normal, Difference between Placebo and APR 30 BID","[2]; 30 BID, week 24, listed as APR",25.0%
same,"AST High, % of patients",[2]; [4],40.0%
same,"AST Low, % of patients",[2]; [4],0.0%
same,"AST Normal, % of patients",[2]; [4],60.0%
same,"AST High, % of patients",[2]; [5],25.0%
same,"AST Low, % of patients",[2]; [5],0.0%
same,"AST Normal, % of patients",[2]; [5],75.0%
same,"AST High, % of patients",[2]; [6],2.0%
same,"AST Low, % of patients",[2]; [6],0.0%
same,"AST Normal, % of patients",[2]; [6],98.0%
same,"AST High, % of patients",[2]; [7],2.1%
same,"AST Low, % of patients",[2]; [7],0.0%
same,"AST Normal, % of patients",[2]; [7],97.9%
same,"AST High, % of patients",[2]; [8],3.2%
same,"AST Low, % of patients",[2]; [8],0.0%
same,"AST Normal, % of patients",[2]; [8],96.8%
same,"AST High, % of patients",[2]; [9],3.9%
same,"AST Low, % of patients",[2]; [9],0.0%
same,"AST Normal, % of patients",[2]; [9],96.1%
same,Baseline High AST: High %,"[2]; Week 4, 20 mg BID",71.4%
same,Baseline High AST: Normal %,"[2]; Week 4, 20 mg BID",28.6%
same,Baseline High AST: High %,"[2]; Week 4, 30 mg BID",50.0%
same,Baseline High AST: Normal %,"[2]; Week 4, 30 mg BID",50.0%
same,Baseline High AST: High %,"[2]; Week 16, 20 mg BID",20.0%
same,Baseline High AST: Normal %,"[2]; Week 16, 20 mg BID",80.0%
same,Baseline High AST: High %,"[2]; Week 16, 30 mg BID",41.7%
same,Baseline High AST: Normal %,"[2]; Week 16, 30 mg BID",58.3%
same,Baseline High AST: High %,"[2]; Week 24, 20 mg BID",40.0%
same,Baseline High AST: Normal %,"[2]; Week 24, 20 mg BID",60.0%
same,Baseline High AST: High %,"[2]; Week 24, 30 mg BID",25.0%
same,Baseline High AST: Normal %,"[2]; Week 24, 30 mg BID",75.0%
same,Change in Pruritus Visual Analog Scale (mm ± SD),[3],−31.5 (±32.43) mm
